Where two headings read alike, the source gives them in different places.
Legend:
Assay type in all cases: cell-based
[1] = system: HT-29 (human colon cancer cell); assay: In vitro anti-tumor activity evaluation (SRB/MTT, 72 hours); conditions: read-out: IC50 Colon cancer HT29
Method: (§1) The tumor cell cultured in vitro was treated with ethoxy combretastatin derivatives for 72 hours, and the MTT and SRB assays was used to evaluate its inhibition of tumor proliferation.
(§2) Cell Line: H460 (human lung cancer cell), SGC7901 (human stomach cancer cell), HT-29 (human colon cancer cell), Bel-7402 (human liver cancer cell).
(§3) Experimental Design: The cells were incubated with the compounds in various concentrations (100, 10, 1, 0.1, 0.01, 0.001 μM) for 72 hours. SRB assay was used to evaluate the inhibition effect of the compounds on cell proliferation. The inhibition rate was calculated, and IC50 was calculated by using Logit model as a function of the inhibition rate. And the anti-tumor activity of the compounds in vitro was compared.
(§4) The Inhibition Rate was Expressed Using the Following Equation: Inhibition rate (%)=[(average OD value of control group−average OD value of experimental group)/average OD value of control group]×100%.

[2] = system: SGC7901 (human stomach cancer cell); assay: as above; conditions: read-out: IC50 Stomach cancer SGC-7901
Method: as §1, §2, §3, §4

[3] = system: H460 (human lung cancer cell); assay: as above; conditions: read-out: IC50 Non-small cell lung cancer H460
Method: as §1, §2, §3, §4

[4] = system: Bel-7402 (human liver cancer cell); assay: as above; conditions: read-out: IC50 Liver cancer Bel-7402
Method: as §1, §2, §3, §4

[5] = system: human umbilical vein endothelial cells (HUVEC); assay: In vitro neovascular inhibition evaluation
Method: Anti-angiogenesis effects of ethoxy combretastatins were assessed in human umbilical vein endothelial cells (HUVEC) using the same method described in Example 10.

[6] = Homo sapiens, read-out: IC50 HUVEC

| Compound | IC50 ([1]; Homo sapiens, HT-29, 72 h) | IC50 ([2]; Homo sapiens, SGC-7901, 72 h) | IC50 ([3]; Homo sapiens, NCI-H460, 72 h) | IC50 ([4]; Homo sapiens, Bel-7402, 72 h) | IC50 [5, 6] | IC50 ([1]; HT29 cells, 72 hours incubation) | IC50 ([2]; SGC-7901 cells, 72 hours incubation) | IC50 ([3]; H460 cells, 72 hours incubation) | IC50 ([4]; Bel-7402 cells, 72 hours incubation) | IC50 ([5]; same method as Example 10, read-out: IC50 HUVEC) |
| --- | --- | --- | --- | --- | --- | --- | --- | --- | --- | --- |
| CCOc1ccc(/C=C\c2cc(OC)c(OC)c(OC)c2)cc1O [Ethoxy combretastatin, (Z)-1-(3,4,5-trimethoxy)phenyl-2-(3′-hydroxy-4′-ethoxy) Phenylethylene] | 47 nM | 8 nM | 11 nM | 620 nM | 2200 nM |  |  |  |  |  |
| CCOc1ccc(/C=C\c2cc(OC)c(OC)c(OC)c2)cc1N [3′-Amino ethoxy combretastatin, (Z)-1-(3,4,5-trimethoxy)phenyl-2-(3′-amino-4′-ethoxy) Phenylethylene] | 25 nM | 6 nM | 8 nM | 330 nM | 1500 nM |  |  |  |  |  |
| COc1ccc(/C=C\c2cc(OC)c(OC)c(OC)c2)cc1O [CA-4, (Z)-1-(3,4,5-trimethoxy)phenyl-2-(3′-hydroxy-4′-methoxy)phenylethylene] |  |  |  |  |  | 2380 nM | 10 nM | 27 nM | 750 nM | 3700 nM |
